Patent publication US8445503B2, “Inhibitors of polo-like kinase” (Elan Pharmaceuticals, Inc., priority 2009, dated 2013)

Tests used:
Assay type in all cases: biochemical
[1] = molecular target: GST-PLK1 (Homo sapiens, UniProt P53350); assay: PLK TR-FRET peptide assay, PLK1; conditions: read-out: Plk1 IC50
[2] = molecular target: T1, GST-PLK2 (Homo sapiens, UniProt Q9NYY3); assay: PLK TR-FRET peptide assay, PLK2; conditions: for IC50: PLK TR-FRET peptide assay, GST-PLK2, read-out: Plk2 IC50; for PLK2 activity relative to the opposite enantiomer / other isomer: comparison of resolved enantiomers, used to assign absolute configuration
T1 construct: purchased CarnaBio
T1 sequence (Q9NYY3 whole entry): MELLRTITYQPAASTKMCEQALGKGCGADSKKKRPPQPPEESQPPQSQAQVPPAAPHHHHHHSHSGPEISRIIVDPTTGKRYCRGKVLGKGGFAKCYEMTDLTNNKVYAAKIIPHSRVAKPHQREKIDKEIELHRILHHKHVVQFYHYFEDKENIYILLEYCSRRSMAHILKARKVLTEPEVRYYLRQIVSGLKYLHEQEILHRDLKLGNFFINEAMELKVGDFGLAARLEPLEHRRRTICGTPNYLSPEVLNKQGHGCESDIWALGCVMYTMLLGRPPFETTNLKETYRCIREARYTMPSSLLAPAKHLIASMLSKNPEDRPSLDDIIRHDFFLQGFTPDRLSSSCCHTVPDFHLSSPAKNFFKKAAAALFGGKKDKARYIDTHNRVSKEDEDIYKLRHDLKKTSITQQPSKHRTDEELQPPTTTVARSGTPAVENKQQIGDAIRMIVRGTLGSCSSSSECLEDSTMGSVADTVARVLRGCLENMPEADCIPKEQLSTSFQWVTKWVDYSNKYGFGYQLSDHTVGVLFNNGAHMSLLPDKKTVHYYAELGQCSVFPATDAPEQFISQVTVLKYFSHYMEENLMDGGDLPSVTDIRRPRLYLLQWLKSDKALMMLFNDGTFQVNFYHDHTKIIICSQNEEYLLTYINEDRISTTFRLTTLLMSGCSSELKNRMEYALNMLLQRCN

[3] = molecular target: T2, GST-PLK3 (Homo sapiens, UniProt Q9H4B4); assay: PLK TR-FRET peptide assay, PLK3; conditions: PLK TR-FRET peptide assay, GST-PLK3; read-out: Plk3 IC50
T2 construct: purchased CarnaBio
T2 sequence (Q9H4B4 whole entry): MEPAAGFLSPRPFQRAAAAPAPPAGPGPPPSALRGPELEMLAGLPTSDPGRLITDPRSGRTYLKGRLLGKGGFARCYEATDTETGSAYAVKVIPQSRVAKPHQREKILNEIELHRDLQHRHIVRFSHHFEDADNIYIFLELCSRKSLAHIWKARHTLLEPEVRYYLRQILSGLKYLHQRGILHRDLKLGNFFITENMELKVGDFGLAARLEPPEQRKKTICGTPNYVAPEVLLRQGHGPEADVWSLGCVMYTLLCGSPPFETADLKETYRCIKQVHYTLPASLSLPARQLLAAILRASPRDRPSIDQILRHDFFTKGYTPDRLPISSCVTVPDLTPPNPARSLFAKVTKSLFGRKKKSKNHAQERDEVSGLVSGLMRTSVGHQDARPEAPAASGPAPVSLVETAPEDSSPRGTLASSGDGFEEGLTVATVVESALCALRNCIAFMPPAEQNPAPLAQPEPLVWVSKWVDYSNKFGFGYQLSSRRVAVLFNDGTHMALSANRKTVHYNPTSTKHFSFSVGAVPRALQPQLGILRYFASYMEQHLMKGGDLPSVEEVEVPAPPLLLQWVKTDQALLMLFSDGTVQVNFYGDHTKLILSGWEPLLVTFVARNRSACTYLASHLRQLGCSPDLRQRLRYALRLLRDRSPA

Sequence of GST-PLK1 (P53350 whole entry): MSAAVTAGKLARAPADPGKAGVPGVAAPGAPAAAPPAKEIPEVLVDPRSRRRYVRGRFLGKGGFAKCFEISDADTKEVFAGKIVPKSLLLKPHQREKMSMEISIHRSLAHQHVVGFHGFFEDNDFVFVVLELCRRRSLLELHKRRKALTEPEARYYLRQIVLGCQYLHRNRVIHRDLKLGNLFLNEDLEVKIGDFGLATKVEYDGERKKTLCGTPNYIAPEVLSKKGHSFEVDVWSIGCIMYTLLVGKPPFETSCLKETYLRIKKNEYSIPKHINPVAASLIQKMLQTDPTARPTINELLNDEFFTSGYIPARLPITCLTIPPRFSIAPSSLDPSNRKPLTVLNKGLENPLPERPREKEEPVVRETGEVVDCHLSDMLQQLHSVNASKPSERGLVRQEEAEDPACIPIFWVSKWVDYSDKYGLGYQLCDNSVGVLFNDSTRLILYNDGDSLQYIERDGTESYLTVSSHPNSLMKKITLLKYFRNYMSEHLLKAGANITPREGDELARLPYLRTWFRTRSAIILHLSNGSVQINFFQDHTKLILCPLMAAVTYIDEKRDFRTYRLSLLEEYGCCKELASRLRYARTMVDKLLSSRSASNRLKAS

IC50 [1]	IC50 [2]	PLK2 activity relative to the opposite enantiomer / other isomer [2]	IC50 [3]	SMILES
> 50 µM	< 1 µM	more active compound	> 50 µM	CC[C@@]12COCCN1c1nc(-n3ccnc3-c3ccc(F)cn3)ncc1N(C)C2=O [Example 380, (S)-6a-ethyl-2-(2-(5-fluoropyridin-2-yl)-1H-imidazol-1-yl)-5-methyl-6a,7,9,10-tetrahydro-[1,4]oxazino[3,4-h]pteridin-6(5H)-one]
1 to 10 µM	< 1 µM	–	> 50 µM	CC[C@@H]1C(=O)N(C)c2cnc(-n3ccnc3-c3cncnc3)nc2N1C1CCC1 [Example 176, (R)-8-cyclobutyl-7-ethyl-5-methyl-2-(2-(pyrimidin-5-yl)-1H-imidazol-1-yl)-7,8-dihydropteridin-6(5H)-one]
< 1 µM	< 1 µM	–	< 1 µM	CC[C@@H]1C(=O)N(C)c2cnc(-n3ccnc3-c3ccncc3)nc2N1C1CCCC1 [Example 83, (R)-8-cyclopentyl-7-ethyl-5-methyl-2-(2-(pyridin-4-yl)-1H-imidazol-1-yl)-7,8-dihydropteridin-6(5H)-one]
< 1 µM	< 1 µM	–	10 to 50 µM	CCC1C(=O)N(C)c2cnc(-n3ccnc3-c3ccccc3)nc2N1N1CCCC1 (stereo not shown) [Example 280, 7-ethyl-5-methyl-2-(2-phenyl-1H-imidazol-1-yl)-8-(pyrrolidin-1-yl)-7,8-dihydropteridin-6(5H)-one]
> 50 µM	1 to 10 µM	–	> 50 µM	CC[C@@]12CCCN1c1nc(-n3ccnc3-c3cnccn3)ncc1N(C)C2=O [Example 144, (S)-6a-ethyl-5-methyl-2-(2-(pyrazin-2-yl)-1H-imidazol-1-yl)-6a,7,8,9-tetrahydropyrrolo[2,1-h]pteridin-6(5H)-one]
< 1 µM	< 1 µM	–	1 to 10 µM	CC[C@@H]1C(=O)N(C)c2cnc(-n3cnc(C(N)=O)c3)nc2N1C1CCCC1 [Example 69, (R)-1-(8-cyclopentyl-7-ethyl-5-methyl-6-oxo-5,6,7,8-tetrahydropteridin-2-yl)-1H-imidazole-4-carboxamide]
10 to 50 µM	< 1 µM	–	10 to 50 µM	CC[C@@H]1C(=O)N(C)c2cnc(-n3cnc(CCN)c3)nc2N1C1CCCC1 [Example 62, (R)-2-(4-(2-aminoethyl)-1H-imidazol-1-yl)-8-cyclopentyl-7-ethyl-5-methyl-7,8-dihydropteridin-6(5H)-one]
< 1 µM	1 to 10 µM	–	1 to 10 µM	CC[C@@H]1C(=O)N(C)c2cnc(-n3cc(C(=O)O)cn3)nc2N1C1CCCC1 [Example 44, (R)-1-(8-cyclopentyl-7-ethyl-5-methyl-6-oxo-5,6,7,8-tetrahydropteridin-2-yl)-1H-pyrazole-4-carboxylic acid]
10 to 50 µM	< 1 µM	–	> 50 µM	CC[C@@H]1C(=O)N(C)c2cnc(-n3ccnc3-c3cccnn3)nc2N1C(C)C [Example 152, (R)-7-ethyl-8-isopropyl-5-methyl-2-(2-(pyridazin-3-yl)-1H-imidazol-1-yl)-7,8-dihydropteridin-6(5H)-one]
1 to 10 µM	< 1 µM	–	1 to 10 µM	CC[C@@H]1C(=O)N(C)c2cnc(-n3ccnc3-c3ccncc3)nc2N1C1CCOCC1 [Example 100, (R)-7-ethyl-5-methyl-2-(2-(pyridin-4-yl)-1H-imidazol-1-yl)-8-(tetrahydro-2H-pyran-4-yl)-7,8-dihydropteridin-6(5H)-one]
< 1 µM	< 1 µM	–	< 1 µM	CC[C@@H]1C(=O)N(C)c2cnc(-n3ccnc3-c3cn[nH]c3)nc2N1C1CCCC1 [Example 97, (R)-2-(2-(1H-pyrazol-4-yl)-1H-imidazol-1-yl)-8-cyclopentyl-7-ethyl-5-methyl-7,8-dihydropteridin-6(5H)-one]
1 to 10 µM	< 1 µM	–	10 to 50 µM	CC[C@@H]1C(=O)N(C)c2cnc(-n3ccnc3-c3nccs3)nc2N1C1CCOC1 (stereo partly drawn) [Example 221, (7R)-7-ethyl-5-methyl-8-(tetrahydrofuran-3-yl)-2-(2-(thiazol-2-yl)-1H-imidazol-1-yl)-7,8-dihydropteridin-6(5H)-one]
> 50 µM	> 50 µM	–	> 50 µM	CC[C@]12COCCN1c1nc(-n3ccnc3-c3ccc(F)cn3)ncc1N(C)C2=O [Example 381, (R)-6a-ethyl-2-(2-(5-fluoropyridin-2-yl)-1H-imidazol-1-yl)-5-methyl-6a,7,9,10-tetrahydro-[1,4]oxazino[3,4-h]pteridin-6(5H)-one]

Continued, compound first:

SMILES	IC50 [1]	IC50 [2]	PLK2 activity relative to the opposite enantiomer / other isomer [2]	IC50 [3]
CN1C(=O)C23C=CC(CC2)N3c2nc(-n3ccnc3-c3ccccc3)ncc21 (stereo not shown) [Example 326, 5-methyl-2-(2-phenyl-1H-imidazol-1-yl)-9H-6a,9-ethanopyrrolo[2,1-h]pteridin-6(5H)-one]	> 50 µM	1 to 10 µM	–	> 50 µM
CC[C@@]12COCCN1c1nc(-c3snnc3-c3ccc(F)cn3)ncc1N(C)C2=O [Example 415, (S)-6a-ethyl-2-(4-(5-fluoropyridin-2-yl)-1,2,3-thiadiazol-5-yl)-5-methyl-6a,7,9,10-tetrahydro-[1,4]oxazino[3,4-h]pteridin-6(5H)-one]	> 50 µM	1 to 10 µM	–	> 50 µM
CC[C@@]12CCCN1c1nc(-n3ncnc3-c3ccccc3)ncc1N(C)C2=O [Example 189, (S)-6a-ethyl-5-methyl-2-(5-phenyl-1H-1,2,4-triazol-1-yl)-6a,7,8,9-tetrahydropyrrolo[2,1-h]pteridin-6(5H)-one]	1 to 10 µM	< 1 µM	–	1 to 10 µM
CC[C@]12COCCN1c1nc(-n3ccnc3-c3nccs3)ncc1N(C)C2=O [Example 386, (R)-6a-ethyl-5-methyl-2-(2-(thiazol-2-yl)-1H-imidazol-1-yl)-6a,7,9,10-tetrahydro-[1,4]oxazino[3,4-h]pteridin-6(5H)-one]	> 50 µM	> 50 µM	–	> 50 µM
CC[C@@]12COCCN1c1nc(-n3ccnc3-c3ccc(F)cc3F)ncc1N(C)C2=O [Example 376, (S)-2-(2-(2,4-difluorophenyl)-1H-imidazol-1-yl)-6a-ethyl-5-methyl-6a,7,9,10-tetrahydro-[1,4]oxazino[3,4-h]pteridin-6(5H)-one]	10 to 50 µM	< 1 µM	more active compound	10 to 50 µM
CC[C@]12COCCN1c1nc(-c3snnc3-c3ccccc3)ncc1N(C)C2=O [Example 369, (R)-6a-ethyl-5-methyl-2-(4-phenyl-1,2,3-thiadiazol-5-yl)-6a,7,9,10-tetrahydro-[1,4]oxazino[3,4-h]pteridin-6(5H)-one]	> 50 µM	> 50 µM	–	> 50 µM
CC[C@@]12COCCN1c1nc(-n3ccnc3-c3ccccc3)ncc1N(C)C2=O (single isomer, unassigned) [Example 314]	> 50 µM	< 1 µM	–	1 to 10 µM
CC[C@@]12COCCN1c1nc(-n3ccnc3-c3nccs3)ncc1N(C)C2=O [Example 387, (S)-6a-ethyl-5-methyl-2-(2-(thiazol-2-yl)-1H-imidazol-1-yl)-6a,7,9,10-tetrahydro-[1,4]oxazino[3,4-h]pteridin-6(5H)-one]	> 50 µM	< 1 µM	more active compound	> 50 µM
CC[C@@H]1C(=O)N(C)c2cnc(-n3ccnc3)nc2N1C1CCC1 [Example 111, (R)-8-cyclobutyl-7-ethyl-2-(1H-imidazol-1-yl)-5-methyl-7,8-dihydropteridin-6(5H)-one]	1 to 10 µM	< 1 µM	–	10 to 50 µM
CC[C@@]12COCCN1c1nc(-c3cn[nH]c3-c3nccs3)ncc1N(C)C2=O [Example 344, (S)-6a-ethyl-5-methyl-2-(5-(thiazol-2-yl)-1H-pyrazol-4-yl)-6a,7,9,10-tetrahydro-[1,4]oxazino[3,4-h]pteridin-6(5H)-one]	> 50 µM	< 1 µM	more active compound	10 to 50 µM
CC[C@]12COCCN1c1nc(-c3snnc3-c3ccc(F)cc3F)ncc1N(C)C2=O [Example 398, (R)-2-(4-(2,4-difluorophenyl)-1,2,3-thiadiazol-5-yl)-6a-ethyl-5-methyl-6a,7,9,10-tetrahydro-[1,4]oxazino[3,4-h]pteridin-6(5H)-one]	> 50 µM	> 50 µM	–	> 50 µM
CCC1C(=O)N(C)c2cnc(-n3ccnc3-c3ccccc3)nc2N1NC(=O)OC(C)(C)C (stereo not shown) [Example 275, tert-butyl 7-ethyl-5-methyl-6-oxo-2-(2-phenyl-1H-imidazol-1-yl)-6,7-dihydropteridin-8(5H)-ylcarbamate]	> 50 µM	10 to 50 µM	–	> 50 µM
CC[C@@]12COCCN1c1nc(-c3cnoc3-c3ccccc3)ncc1N(C)C2=O [Example 413, (S)-6a-ethyl-5-methyl-2-(5-phenylisoxazol-4-yl)-6a,7,9,10-tetrahydro-[1,4]oxazino[3,4-h]pteridin-6(5H)-one]	10 to 50 µM	< 1 µM	–	10 to 50 µM
CC[C@@H]1C(=O)N(C)c2cnc(-c3n[nH]cc3-c3ccccc3)nc2N1C1CCCC1 [Example 245, (R)-8-cyclopentyl-7-ethyl-5-methyl-2-(4-phenyl-1H-pyrazol-3-yl)-7,8-dihydropteridin-6(5H)-one]	< 1 µM	< 1 µM	–	1 to 10 µM
CCC1C(=O)N(C)c2cnc(-n3ccnc3)nc2N1c1cn[nH]c1 (stereo not shown) [Example 343, 7-ethyl-2-(1H-imidazol-1-yl)-5-methyl-8-(1H-pyrazol-4-yl)-7,8-dihydropteridin-6(5H)-one]	> 50 µM	1 to 10 µM	–	> 50 µM
